Test results as given in ChEMBL document CHEMBL3044623, “Feeding cessation effects of chlorantraniliprole, a new anthranilic diamide insecticide, in comparison with several insecticides in distinct chemical classes and mode-of-action groups” (2009).

What was measured:
Assay type in all cases: functional
Trichoplusia ni [1] = experiment: Antifeedant activity against third-instar larval stage of Trichoplusia ni (cabbage looper) infested compound-treated leaf assessed as time required to stop feeding at 187 mg a.i/L after 48 hr by leaf disk assay (reference value: > 2880 min)
Helicoverpa zea [2] = experiment: Antifeedant activity against third-instar larval stage of Helicoverpa zea (corn earworm) infested compound-treated leaf assessed as time required to stop feeding at 187 mg a.i/L after 48 hr by leaf disk assay (reference value: > 2880 min)
Spodoptera exigua [3] = experiment: Antifeedant activity against third-instar larval stage of Spodoptera exigua infested compound-treated leaf assessed as reduction in feeding damage at 187 mg a.i/L after 48 hr by leaf disk assay relative to untreated control; design: scale not given: the % may be the effect or the level left
Spodoptera exigua [4] = experiment: Antifeedant activity against third-instar larval stage of Spodoptera exigua infested compound-treated leaf assessed as time required to stop feeding at 187 mg a.i/L after 48 hr by leaf disk assay (reference value: > 2880 min)
Trichoplusia ni [5] = experiment: Antifeedant activity against third-instar larval stage of Trichoplusia ni (cabbage looper) infested compound-treated leaf assessed as reduction in feeding damage at 187 mg a.i/L after 48 hr by leaf disk assay relative to untreated control; design: scale not given: the % may be the effect or the level left
Helicoverpa zea [6] = experiment: Antifeedant activity against third-instar larval stage of Helicoverpa zea (corn earworm) infested compound-treated leaf assessed as reduction in feeding damage at 187 mg a.i/L after 48 hr by leaf disk assay relative to untreated control; design: scale not given: the % may be the effect or the level left
Helicoverpa zea [7] = experiment: Antifeedant activity against third-instar larval stage of Helicoverpa zea (corn earworm) infested compound-treated leaf assessed as reduction in feeding damage at 167 mg a.i/L after 48 hr by leaf disk assay relative to untreated control; design: scale not given: the % may be the effect or the level left
Trichoplusia ni [8] = experiment: Antifeedant activity against third-instar larval stage of Trichoplusia ni (cabbage looper) infested compound-treated leaf assessed as reduction in feeding damage at 167 mg a.i/L after 48 hr by leaf disk assay relative to untreated control; design: scale not given: the % may be the effect or the level left
Plutella xylostella [9] = experiment: Antifeedant activity against third-instar larval stage of Plutella xylostella (diamondback moth) infested compound-treated leaf assessed as time required to stop feeding at 167 mg a.i/L after 48 hr by leaf disk assay (reference value: > 2880 min)
Spodoptera exigua [10] = experiment: Antifeedant activity against third-instar larval stage of Spodoptera exigua infested compound-treated leaf assessed as time required to stop feeding at 167 mg a.i/L after 48 hr by leaf disk assay (reference value: > 2880 min)
Trichoplusia ni [11] = experiment: Antifeedant activity against third-instar larval stage of Trichoplusia ni (cabbage looper) infested compound-treated leaf assessed as time required to stop feeding at 167 mg a.i/L after 48 hr by leaf disk assay (reference value: > 2880 min)
Plutella xylostella [12] = experiment: Antifeedant activity against third-instar larval stage of Plutella xylostella (diamondback moth) infested compound-treated leaf assessed as reduction in feeding damage at 167 mg a.i/L after 48 hr by leaf disk assay relative to untreated control; design: scale not given: the % may be the effect or the level left
Spodoptera exigua [13] = experiment: Antifeedant activity against third-instar larval stage of Spodoptera exigua infested compound-treated leaf assessed as reduction in feeding damage at 167 mg a.i/L after 48 hr by leaf disk assay relative to untreated control; design: scale not given: the % may be the effect or the level left
Helicoverpa zea [14] = experiment: Antifeedant activity against third-instar larval stage of Helicoverpa zea (corn earworm) infested compound-treated leaf assessed as time required to stop feeding at 167 mg a.i/L after 48 hr by leaf disk assay (reference value: > 2880 min)
Helicoverpa zea [15] = experiment: Antifeedant activity against third-instar larval stage of Helicoverpa zea (corn earworm) infested compound-treated leaf assessed as time required to stop feeding at 40 mg a.i/L after 48 hr by leaf disk assay (reference value: > 2880 min)
Spodoptera exigua [16] = experiment: Antifeedant activity against third-instar larval stage of Spodoptera exigua infested compound-treated leaf assessed as reduction in feeding damage at 40 mg a.i/L after 48 hr by leaf disk assay relative to untreated control; design: scale not given: the % may be the effect or the level left
Trichoplusia ni [17] = experiment: Antifeedant activity against third-instar larval stage of Trichoplusia ni (cabbage looper) infested compound-treated leaf assessed as time required to stop feeding at 40 mg a.i/L after 48 hr by leaf disk assay (reference value: > 2880 min)
Helicoverpa zea [18] = experiment: Antifeedant activity against third-instar larval stage of Helicoverpa zea (corn earworm) infested compound-treated leaf assessed as reduction in feeding damage at 40 mg a.i/L after 48 hr by leaf disk assay relative to untreated control; design: scale not given: the % may be the effect or the level left
Spodoptera exigua [19] = experiment: Antifeedant activity against third-instar larval stage of Spodoptera exigua infested compound-treated leaf assessed as time required to stop feeding at 40 mg a.i/L after 48 hr by leaf disk assay (reference value: > 2880 min)
Plutella xylostella [20] = experiment: Antifeedant activity against third-instar larval stage of Plutella xylostella (diamondback moth) infested compound-treated leaf assessed as reduction in feeding damage at 40 mg a.i/L after 48 hr by leaf disk assay relative to untreated control; design: scale not given: the % may be the effect or the level left
Plutella xylostella [21] = experiment: Antifeedant activity against third-instar larval stage of Plutella xylostella (diamondback moth) infested compound-treated leaf assessed as time required to stop feeding at 40 mg a.i/L after 48 hr by leaf disk assay (reference value: > 2880 min)
Trichoplusia ni [22] = experiment: Antifeedant activity against third-instar larval stage of Trichoplusia ni (cabbage looper) infested compound-treated leaf assessed as reduction in feeding damage at 40 mg a.i/L after 48 hr by leaf disk assay relative to untreated control; design: scale not given: the % may be the effect or the level left

## CC(C)[C@H](C(=O)O[C@H](C#N)c1cccc(Oc2ccccc2)c1)c1ccc(Cl)cc1
Trichoplusia ni [1]
  Time: 5 min
Helicoverpa zea [2]
  Time: 3.4 min
Spodoptera exigua [3]
  Activity: 99.9%
Spodoptera exigua [4]
  Time: 6.4 min
Trichoplusia ni [5]
  Activity: 99.9%
Helicoverpa zea [6]
  Activity: 99.9%

## CNC(=O)c1cc(Cl)cc(C)c1NC(=O)c1cc(Br)nn1-c1ncccc1Cl [CHLORANTRANILIPROLE]
Helicoverpa zea [7]
  Activity: 99.2%
Trichoplusia ni [8]
  Activity: 99.4%
Plutella xylostella [9]
  Time: 15.4 min
Spodoptera exigua [10]
  Time: 25.3 min
Trichoplusia ni [11]
  Time: 23.4 min
Plutella xylostella [12]
  Activity: 99.4%
Spodoptera exigua [13]
  Activity: 99%
Helicoverpa zea [14]
  Time: 20.3 min

## CC[C@H](C)C1O[C@]2(C=C[C@@H]1C)C[C@@H]1C[C@@H](C/C=C(\C)[C@@H](O[C@H]3C[C@H](OC)[C@@H](O[C@H]4C[C@H](OC)[C@H](NC)[C@H](C)O4)[C@H](C)O3)[C@@H](C)/C=C/C=C3\CO[C@@H]4[C@H](O)C(C)=C[C@@H](C(=O)O1)[C@]34O)O2.O=C(O)c1ccccc1 (some centres not stated) [EMAMECTIN BENZOATE]
Helicoverpa zea [15]
  Time: 151.8 min
Spodoptera exigua [16]
  Activity: 92.4%
Trichoplusia ni [17]
  Time: 91.9 min
Helicoverpa zea [18]
  Activity: 93.9%
Spodoptera exigua [19]
  Time: 139 min
Plutella xylostella [20]
  Activity: 97.9%
Plutella xylostella [21]
  Time: 55.9 min
Trichoplusia ni [22]
  Activity: 95.7%
